Test results reported in patent US5700480A, “Transdermal therapeutic system comprising galanthamine as active component” (priority 1993, dated 1997).

Columns and labels:
cholinesterase = details: cited from earlier work
[1] = vs physostigmine or neostigmine; cited from earlier work
[2] = penetration through excized rodent (mice) skin, Franz' diffusion cells; assay type: in vitro ADME; details: galanthamine, mice skin in vitro; addition of the acid as penetration enhancer
Experimental: 150 g 52.8% (w/w) active substance-containing adhesive solution result which is spread on an aluminized and siliconized polyethylene sheet by means of a 350 μm coating knife. After the solvents have been removed by drying for 30 min. up to 60° C., the adhesive film is covered with a polyester sheet (15 μm). An area of 16 cm^2 is punched by means of a suitable cutting tool and the edges are separated off. The release relating to both this and the other examples is listed in the table; the list indicates both the controlled release into a physiological saline and through excized rodent skin.
The in-vitro-release was determined in a shaking water bath at 37° C. The acceptor medium was 100 ml physiological saline which was completely changed after 2, 4 and 8 hours. The concentration was determined by HPLC after 2, 4, and 8 and 24 hours. The penetration through mice skin was measured by means of Franz' diffusion cells.

Compound	penetration rate increase by addition of acid [2] [factor]	also measured
COc1ccc2c3c1OC1CC(O)C=CC31CCN(C)C2 (centres unmarked) [galanthamine, 4a,5,9,10,11,12-hexahydro-3-methoxy-11-methyl-6H-benzofuro (3a,3,2-ef) (2) benzazepin-6-ol]	–	cholinesterase inhibition (in words) (cholinesterase; pharmacological properties): reversibly acting cholinesterase inhibitors; cholinesterase inhibiting-action, relative to the dosage (cholinesterase; vs physostigmine or neostigmine): slightly lower; therapeutic range [1]: three to six times broader; toxicity (in words) [1]: not as toxic as physostigmine or neostigmine
CC(C)CCCCCCCCCCCCCCC(=O)O [isostearic acid]	1.5	–
CCCCCCCC(=O)O [octanoic acid]	1.5	–
CCCCCCCC/C=C\CCCCCCCC(=O)O [oleic acid]	1.5	–
C=CCCCCCCCCC(=O)O [undecenoic acid]	1.5	–
